Reference: ChEMBL document CHEMBL1143550, “A structural screening approach to ketoamide-based inhibitors of cathepsin K” (Bioorg Med Chem Lett, 2005)
In brackets after ≈: the same amount, converted by molar mass.

Key:
[1] = biological target: T1, Cathepsin K (Homo sapiens, UniProt P43235); test: Inhibitory concentration against human cathepsin K
T1 sequence (P43235 whole entry): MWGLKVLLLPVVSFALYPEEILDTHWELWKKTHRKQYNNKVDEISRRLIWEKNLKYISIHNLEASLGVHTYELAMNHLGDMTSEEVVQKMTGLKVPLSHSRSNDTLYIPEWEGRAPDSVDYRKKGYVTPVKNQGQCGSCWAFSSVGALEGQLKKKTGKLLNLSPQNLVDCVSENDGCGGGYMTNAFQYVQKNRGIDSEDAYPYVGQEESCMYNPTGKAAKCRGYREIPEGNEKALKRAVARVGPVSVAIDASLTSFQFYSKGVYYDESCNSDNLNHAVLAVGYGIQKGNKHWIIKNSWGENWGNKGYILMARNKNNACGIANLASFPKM

[2] = biological target: T2, Cathepsin L2 (Homo sapiens, UniProt O60911); test: Inhibitory concentration against human cathepsin V by fluorescence assay using 2 uM Cbz-Phe-Arg-AMC
T2 sequence (O60911 whole entry): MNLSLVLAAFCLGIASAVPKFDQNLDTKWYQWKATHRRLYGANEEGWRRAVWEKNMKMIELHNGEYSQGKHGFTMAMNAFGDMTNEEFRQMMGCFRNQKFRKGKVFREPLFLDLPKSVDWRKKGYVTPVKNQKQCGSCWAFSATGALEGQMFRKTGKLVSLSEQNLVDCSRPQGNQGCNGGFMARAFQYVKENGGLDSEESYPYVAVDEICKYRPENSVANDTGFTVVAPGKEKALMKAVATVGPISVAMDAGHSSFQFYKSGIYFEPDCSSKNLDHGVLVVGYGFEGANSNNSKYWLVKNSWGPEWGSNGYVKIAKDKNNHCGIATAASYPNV

[3] = biological target: T3, Pro-cathepsin H (Homo sapiens, UniProt P09668); test: Inhibitory concentration against human cathepsin H by fluorescence assay using 50 uM L-Arg-b-naphthalamide
T3 sequence (P09668 whole entry): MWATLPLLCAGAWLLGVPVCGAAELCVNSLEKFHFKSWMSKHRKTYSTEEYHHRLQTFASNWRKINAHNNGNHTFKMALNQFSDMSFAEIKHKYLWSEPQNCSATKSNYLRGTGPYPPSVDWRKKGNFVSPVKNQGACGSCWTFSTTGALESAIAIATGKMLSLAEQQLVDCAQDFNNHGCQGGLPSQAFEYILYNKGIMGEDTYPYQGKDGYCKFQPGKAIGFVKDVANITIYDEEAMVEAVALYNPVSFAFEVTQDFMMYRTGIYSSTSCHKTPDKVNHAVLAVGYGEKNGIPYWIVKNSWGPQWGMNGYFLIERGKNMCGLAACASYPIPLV

[4] = biological target: Cathepsin B (Homo sapiens, UniProt P07858); test: Inhibitory concentration against human cathepsin B by fluorescence assay using 10 uM Cbz-Phe-Arg-AMC
[5] = biological target: Cathepsin S (Homo sapiens, UniProt P25774); test: Inhibitory concentration against human cathepsin S by fluorescence assay using 10 uM Cbz-Val-Val-Arg-AMC
[6] = biological target: Procathepsin L (Homo sapiens, UniProt P07711); test: Inhibitory concentration against human cathepsin L by fluorescence assay using 5 uM Cbz-Phe-Arg-AMC
[7] = Total clearance after intravenous administration of […] mg/kg in rats was determined; format: ADME, organism-based; settings: rat, in vivo, 2.5 mg/kg, read-out: C1
[8] = Oral bioavailability in rat (dose 5 mg/kg p.o.); settings: in vivo
[9] = Steady state volume of distribution after intravenous administration of 2.5 mg/kg in rats was determined; format: ADME, organism-based; set-up: dose 2.5 mg/kg, route intravenous; settings: rat, in vivo, read-out: Vss
[10] = Half-life after intravenous administration of […] mg/kg in rats was determined; format: ADME, organism-based; settings: rat, in vivo, 2.5 mg/kg
[11] = Equilibrium solubility in fasted state-simulated intestinal fluid at pH 6.8 was determined; format: ADME
[12] = solubility in fasted state stimulated intestinal fluid (pH6.8); format: ADME; settings: rat, fasted state simulated intestinal fluid, pH 6.8

Sequence of Procathepsin L (P07711 whole entry): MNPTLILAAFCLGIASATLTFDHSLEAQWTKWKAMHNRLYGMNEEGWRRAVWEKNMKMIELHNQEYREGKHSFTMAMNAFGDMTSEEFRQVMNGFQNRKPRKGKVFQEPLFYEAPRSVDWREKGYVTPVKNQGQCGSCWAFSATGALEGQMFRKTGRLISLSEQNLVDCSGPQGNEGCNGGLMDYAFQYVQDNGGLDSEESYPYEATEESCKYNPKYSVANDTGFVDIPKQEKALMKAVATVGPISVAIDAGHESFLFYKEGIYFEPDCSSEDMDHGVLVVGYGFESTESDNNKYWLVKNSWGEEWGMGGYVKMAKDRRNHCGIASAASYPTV
Sequence of Cathepsin S (P25774 whole entry): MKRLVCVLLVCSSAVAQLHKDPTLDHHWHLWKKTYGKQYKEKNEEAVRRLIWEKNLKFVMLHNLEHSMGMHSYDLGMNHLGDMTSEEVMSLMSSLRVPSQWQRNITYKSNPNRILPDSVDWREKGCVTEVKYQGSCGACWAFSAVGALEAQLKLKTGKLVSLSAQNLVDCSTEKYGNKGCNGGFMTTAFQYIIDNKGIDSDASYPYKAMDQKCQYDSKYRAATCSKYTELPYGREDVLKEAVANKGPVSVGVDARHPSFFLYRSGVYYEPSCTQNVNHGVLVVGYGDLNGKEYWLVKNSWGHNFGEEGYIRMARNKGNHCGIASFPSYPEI

| SMILES | IC50 [1] | IC50 [2] | IC50 [3] | IC50 [4] | IC50 [5] | IC50 [6] | clearance [7] | bioavailability [8] | Vd [9] | half-life [10] | solubility thermodynamic [11] | solubility [12] |
| --- | --- | --- | --- | --- | --- | --- | --- | --- | --- | --- | --- | --- |
| CCCC[C@H](NC(=O)OC1C2(C)CCC(C2)C1(C)C)C(=O)C(=O)N[C@H](C)c1ccccc1 (some centres undefined) | 5.7 nM | 180 nM | > 13000 nM | 12000 nM | 30 nM | 1700 nM |  |  |  |  |  |  |
| CCCC[C@H](NC(=O)O[C@@H]1C(=O)NCC1(C)C)C(=O)C(=O)N[C@H](C)c1ccccc1 | 2.5 nM | 29 nM | > 13000 nM | 1400 nM | 18 nM | 150 nM | 48 mL/min/kg | 25% | 1.3 L/kg | 62 min | 800 µg/mL (≈ 1920 µM) |  |
| CCCC[C@H](NC(=O)OC1C[C@H](C)C[C@@H](C)C1)C(=O)C(=O)N[C@H](C)c1ccccc1 (some centres undefined) | 190 nM | 2000 nM | > 13000 nM | > 13000 nM | 290 nM | 6800 nM |  |  |  |  |  |  |
| CCCC[C@H](NC(=O)O[C@H]1CCCc2ccccc21)C(=O)C(=O)N[C@H](C)c1ccccc1 | 32 nM | 340 nM | > 2000 nM | > 2000 nM | 79 nM | 660 nM |  |  |  |  |  |  |
| CCCC[C@H](NC(=O)O[C@H]1CCc2ccccc21)C(=O)C(=O)N[C@H](C)c1ccccc1 | 100 nM | 290 nM | > 13000 nM | > 13000 nM | 280 nM | 460 nM |  |  |  |  |  |  |
| CCCC[C@H](NC(=O)OC1CC2CCC1C2)C(=O)C(=O)N[C@H](C)c1ccccc1 (some centres undefined) | 26 nM | 190 nM | > 13000 nM | > 13000 nM | 19 nM | 1000 nM |  |  |  |  |  |  |
| CCCC[C@H](NC(=O)O[C@@H]1C(=O)OCC1(C)C)C(=O)C(=O)N[C@H](C)c1ccccc1 | 3 nM | 79 nM | > 500 nM | > 500 nM | 13 nM | 410 nM | 460 mL/min/kg | 0% | 3.4 L/kg | 11 min |  | 240 µg/mL (≈ 573 µM) |
| CCCC[C@H](NC(=O)OC1C2CC3CC(C2)CC1C3)C(=O)C(=O)N[C@H](C)c1ccccc1 (some centres undefined) | 7.2 nM | 390 nM | > 5000 nM | > 5000 nM | 16 nM | 2600 nM |  |  |  |  |  |  |
| CCCC[C@H](NC(=O)O[C@@H]1C[C@H](C)C[C@H](C)C1)C(=O)C(=O)N[C@H](C)c1ccccc1 | 350 nM | 2800 nM | > 13000 nM | > 13000 nM | 63 nM | 4400 nM |  |  |  |  |  |  |
